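Exposure lasted 48 hours, with cells grown in 96-well plates and compounds tested at five concentrations. The concentration for full growth arrest is given as TGI.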
Legend:
Test in all cases: growth of human tumour cells (NCI), 48 h
786-0 renal = system: 786-0 renal
A549 NSCLC = system: A549 NSCLC
ACHN renal = system: ACHN renal
BT-549 breast = system: BT-549 breast
CAKI-1 renal = system: CAKI-1 renal
CCRF-CEM leukemia = system: CCRF-CEM leukemia
COLO 205 colon = system: COLO 205 colon
DU-145 prostate = system: DU-145 prostate
EKVX NSCLC = system: EKVX NSCLC
HCC-2998 colon = system: HCC-2998 colon
HCT-116 colon = system: HCT-116 colon
HCT-15 colon = system: HCT-15 colon
HL-60(TB) leukemia = system: HL-60(TB) leukemia
HOP-62 NSCLC = system: HOP-62 NSCLC
HOP-92 NSCLC = system: HOP-92 NSCLC
HT29 colon = system: HT29 colon
IGROV1 ovarian = system: IGROV1 ovarian
LOX IMVI melanoma = system: LOX IMVI melanoma
M14 melanoma = system: M14 melanoma
MCF7 breast = system: MCF7 breast
MDA-MB-231 breast = system: MDA-MB-231 breast
MDA-MB-435 = system: MDA-MB-435
MDA-N = system: MDA-N
MOLT-4 leukemia = system: MOLT-4 leukemia
NCI-H226 lung = system: NCI-H226 lung
NCI-H23 lung = system: NCI-H23 lung
OVCAR-3 ovarian = system: OVCAR-3 ovarian
OVCAR-4 ovarian = system: OVCAR-4 ovarian
OVCAR-5 ovarian = system: OVCAR-5 ovarian
PC-3 prostate = system: PC-3 prostate
RPMI-8226 leukemia = system: RPMI-8226 leukemia
RXF 393 renal = system: RXF 393 renal
SF-295 CNS = system: SF-295 CNS
SF-539 CNS = system: SF-539 CNS
SK-MEL-2 melanoma = system: SK-MEL-2 melanoma
SK-MEL-28 melanoma = system: SK-MEL-28 melanoma
SK-MEL-5 melanoma = system: SK-MEL-5 melanoma
SK-OV-3 ovarian = system: SK-OV-3 ovarian
SN12C renal = system: SN12C renal
SNB-19 CNS = system: SNB-19 CNS
SR leukemia = system: SR leukemia
T-47D breast = system: T-47D breast
TK-10 renal = system: TK-10 renal
U251 CNS = system: U251 CNS
UACC-257 melanoma = system: UACC-257 melanoma
UACC-62 melanoma = system: UACC-62 melanoma
UO-31 renal = system: UO-31 renal
A498 renal = system: A498 renal
HS 578T breast = system: HS 578T breast
KM12 colon = system: KM12 colon
MALME-3M melanoma = system: MALME-3M melanoma
NCI-H460 lung = system: NCI-H460 lung
NCI/ADR-RES ovarian = system: NCI/ADR-RES ovarian
OVCAR-8 ovarian = system: OVCAR-8 ovarian
SF-268 CNS = system: SF-268 CNS
SNB-75 CNS = system: SNB-75 CNS
SW-620 colon = system: SW-620 colon

## CCOC(=O)C1CC(O)C(=O)N1C (stereo not given)
786-0 renal
  TGI: > 100 µM
A549 NSCLC
  TGI: > 100 µM
ACHN renal
  TGI: > 100 µM
BT-549 breast
  TGI: > 100 µM
CAKI-1 renal
  TGI: > 100 µM
CCRF-CEM leukemia
  TGI: > 100 µM
COLO 205 colon
  TGI: > 100 µM
DU-145 prostate
  TGI: > 100 µM
EKVX NSCLC
  TGI: > 100 µM
HCC-2998 colon
  TGI: > 100 µM
HCT-116 colon
  TGI: > 100 µM
HCT-15 colon
  TGI: > 100 µM
HL-60(TB) leukemia
  TGI: > 100 µM
HOP-62 NSCLC
  TGI: > 100 µM
HOP-92 NSCLC
  TGI: > 100 µM
HT29 colon
  TGI: > 100 µM
IGROV1 ovarian
  TGI: > 100 µM
LOX IMVI melanoma
  TGI: > 100 µM
M14 melanoma
  TGI: > 100 µM
MCF7 breast
  TGI: > 100 µM
MDA-MB-231 breast
  TGI: > 100 µM
MDA-MB-435
  TGI: > 100 µM
MDA-N
  TGI: > 100 µM
MOLT-4 leukemia
  TGI: > 100 µM
NCI-H226 lung
  TGI: > 100 µM
NCI-H23 lung
  TGI: > 100 µM
OVCAR-3 ovarian
  TGI: > 100 µM
OVCAR-4 ovarian
  TGI: > 100 µM
OVCAR-5 ovarian
  TGI: > 100 µM
PC-3 prostate
  TGI: > 100 µM
RPMI-8226 leukemia
  TGI: > 100 µM
RXF 393 renal
  TGI: > 100 µM
SF-295 CNS
  TGI: > 100 µM
SF-539 CNS
  TGI: > 100 µM
SK-MEL-2 melanoma
  TGI: > 100 µM
SK-MEL-28 melanoma
  TGI: > 100 µM
SK-MEL-5 melanoma
  TGI: > 100 µM
SK-OV-3 ovarian
  TGI: > 100 µM
SN12C renal
  TGI: > 100 µM
SNB-19 CNS
  TGI: > 100 µM
SR leukemia
  TGI: > 100 µM
T-47D breast
  TGI: > 100 µM
TK-10 renal
  TGI: > 100 µM
U251 CNS
  TGI: > 100 µM
UACC-257 melanoma
  TGI: > 100 µM
UACC-62 melanoma
  TGI: > 100 µM
UO-31 renal
  TGI: > 100 µM

## O=C(/C=C/c1cccs1)c1ccc(Cl)cc1
786-0 renal
  TGI: > 100 µM
A498 renal
  TGI: > 100 µM
A549 NSCLC
  TGI: > 100 µM
ACHN renal
  TGI: > 100 µM
CCRF-CEM leukemia
  TGI: 68 µM
COLO 205 colon
  TGI: > 100 µM
DU-145 prostate
  TGI: > 100 µM
EKVX NSCLC
  TGI: > 100 µM
HCC-2998 colon
  TGI: > 100 µM
HCT-116 colon
  TGI: > 100 µM
HCT-15 colon
  TGI: > 100 µM
HL-60(TB) leukemia
  TGI: 70.5 µM
HOP-62 NSCLC
  TGI: > 100 µM
HS 578T breast
  TGI: > 100 µM
HT29 colon
  TGI: > 100 µM
IGROV1 ovarian
  TGI: > 100 µM
KM12 colon
  TGI: > 100 µM
MALME-3M melanoma
  TGI: > 100 µM
MCF7 breast
  TGI: > 100 µM
MDA-MB-231 breast
  TGI: > 100 µM
MDA-N
  TGI: > 100 µM
MOLT-4 leukemia
  TGI: 48.9 µM
NCI-H226 lung
  TGI: > 100 µM
NCI-H23 lung
  TGI: > 100 µM
NCI-H460 lung
  TGI: > 100 µM
NCI/ADR-RES ovarian
  TGI: > 100 µM
OVCAR-5 ovarian
  TGI: > 100 µM
OVCAR-8 ovarian
  TGI: > 100 µM
PC-3 prostate
  TGI: > 100 µM
RPMI-8226 leukemia
  TGI: 57.8 µM
SF-268 CNS
  TGI: > 100 µM
SF-295 CNS
  TGI: > 100 µM
SF-539 CNS
  TGI: > 100 µM
SK-MEL-2 melanoma
  TGI: > 100 µM
SK-MEL-28 melanoma
  TGI: > 100 µM
SK-MEL-5 melanoma
  TGI: > 100 µM
SK-OV-3 ovarian
  TGI: > 100 µM
SN12C renal
  TGI: > 100 µM
SNB-19 CNS
  TGI: > 100 µM
SNB-75 CNS
  TGI: > 100 µM
SR leukemia
  TGI: 71.1 µM
SW-620 colon
  TGI: 92.9 µM
T-47D breast
  TGI: > 100 µM
TK-10 renal
  TGI: > 100 µM
U251 CNS
  TGI: > 100 µM
UACC-257 melanoma
  TGI: > 100 µM
UACC-62 melanoma
  TGI: > 100 µM
UO-31 renal
  TGI: > 100 µM
